Experimental data published in US20250353891A1 (MEDIMMUNE LIMITED, priority 2022, published 2025).
Starred links: 1 amine or outer side, 2 acyl side, 3 side chain; linkers in the order of their positions; H or OH if unused. Non-standard residues stand in square brackets, D forms with d. Residues, ends and D or L forms follow the SMILES beside them. Groups on a side chain read outwards from the residue. *: point of attachment. C18 diacid = O=C(O)CCCCCCCCCCCCCCCCC(=O)*; γGlu = O=C(O)[C@H](CCC(=O)[*:2])N[*:1]; αMeF = C[C@](N)(Cc1ccccc1)C(=O)O; PEG4 = NCCOCCOCCOCCOCCC(=O)O; AEEA = NCCOCCOCC(=O)O; Aib = CC(C)(N)C(=O)O

How the values were obtained:
[1] = molecular target: human glucagon receptor (hGCGR) (Homo sapiens, UniProt P47871); experiment: cAMP production (HTRF) in CHO cells expressing hGCGR; assay type: cell-based; set-up: expressed in transfected cells; details: Table 6, peptides modified at position 17; cAMP in CHO hGCGR cells; geometric mean; read-out: hGluc-R EC50
Outline: (§1)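 Read-out: HTRF cAMP (anti-cAMP cryptate donor, cAMP-d2 acceptor in conjugate/lysis buffer), converted to % Delta F and fitted by 4-parameter logistic for EC50. Cell densities were 1×10^5 cells/mL (hGLP-1R) or 2×10^5 cells/mL (hGCGR). Stimulation lasted 30 min at room temperature.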

[2] = molecular target: human GLP-1 receptor (hGLP-1R) (Homo sapiens, UniProt P43220); experiment: cAMP production (HTRF) in CHO cells expressing hGLP-1R; assay type: cell-based; set-up: expressed in transfected cells; details: for EC50: Table 6, peptides modified at position 17, cAMP in CHO hGLP-1R cells, geometric mean, read-out: hGLP-1R EC50; for % Relative Potency Ratio: Table 6, % GLP-1R activity relative to GLP-1 / % GlucR activity relative to glucagon
Outline: as §1

Sequence of human GLP-1 receptor (hGLP-1R) (P43220 24-463): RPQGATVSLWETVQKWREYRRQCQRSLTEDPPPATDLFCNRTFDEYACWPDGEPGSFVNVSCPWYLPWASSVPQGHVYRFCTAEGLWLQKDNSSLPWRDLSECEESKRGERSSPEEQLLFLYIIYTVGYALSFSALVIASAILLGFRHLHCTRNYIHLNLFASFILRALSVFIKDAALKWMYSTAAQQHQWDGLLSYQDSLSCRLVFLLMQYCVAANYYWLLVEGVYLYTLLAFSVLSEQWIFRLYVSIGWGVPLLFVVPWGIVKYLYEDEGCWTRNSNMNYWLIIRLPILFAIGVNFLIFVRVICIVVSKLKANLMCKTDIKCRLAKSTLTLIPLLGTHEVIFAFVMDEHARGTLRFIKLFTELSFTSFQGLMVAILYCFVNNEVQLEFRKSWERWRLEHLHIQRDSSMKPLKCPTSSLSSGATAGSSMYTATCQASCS
Sequence of human glucagon receptor (hGCGR) (P47871 26-477): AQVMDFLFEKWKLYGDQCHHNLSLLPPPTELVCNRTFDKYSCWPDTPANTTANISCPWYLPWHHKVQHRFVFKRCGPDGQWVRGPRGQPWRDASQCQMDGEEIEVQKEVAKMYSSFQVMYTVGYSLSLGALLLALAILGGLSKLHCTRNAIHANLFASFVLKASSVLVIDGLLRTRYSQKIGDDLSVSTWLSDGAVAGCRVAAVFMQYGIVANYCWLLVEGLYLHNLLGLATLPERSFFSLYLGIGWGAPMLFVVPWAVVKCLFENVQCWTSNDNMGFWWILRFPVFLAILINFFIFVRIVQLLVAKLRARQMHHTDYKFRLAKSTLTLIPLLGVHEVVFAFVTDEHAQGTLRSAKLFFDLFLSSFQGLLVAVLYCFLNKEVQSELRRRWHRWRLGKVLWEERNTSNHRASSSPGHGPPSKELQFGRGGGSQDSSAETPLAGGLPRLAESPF

EC50 [1]	EC50 [2]	% Relative Potency Ratio [2]	Compound
0.278 nM	0.0431 nM	12.8	CC(C)C[C@H](NC(=O)[C@H](Cc1c[nH]c2ccccc12)NC(=O)[C@H](CCC(N)=O)NC(=O)[C@@H](NC(=O)[C@H](Cc1ccccc1)NC(=O)[C@H](CC(=O)O)NC(=O)[C@H](CCCNC(=N)N)NC(=O)[C@H](C)NC(=O)[C@H](CCCNC(=N)N)NC(=O)[C@H](CCCCNC(=O)COCCOCCNC(=O)COCCOCCNC(=O)CC[C@H](NC(=O)CCCCCCCCCCCCCCCCC(=O)O)C(=O)O)NC(=O)[C@H](CO)NC(=O)[C@H](CC(=O)O)NC(=O)[C@H](CC(C)C)NC(=O)[C@](C)(Cc1ccccc1)NC(=O)[C@H](CCCCN)NC(=O)[C@H](CO)NC(=O)[C@@H](NC(=O)[C@H](CC(=O)O)NC(=O)[C@H](CO)NC(=O)[C@@H](NC(=O)[C@H](Cc1ccccc1)NC(=O)[C@@H](NC(=O)CNC(=O)[C@H](CCC(N)=O)NC(=O)C(C)(C)NC(=O)[C@@H](N)Cc1c[nH]cn1)[C@@H](C)O)[C@@H](C)O)C(C)C)C(C)C)C(=O)N[C@@H](CC(C)C)C(=O)NC(C)(C)C(=O)N[C@H](C(=O)O)[C@@H](C)O [Peptide 36] (H-H[Aib]QGTFTSDVSK[αMeF]LDSK([AEEA-AEEA-γGlu-C18 diacid])RARDFVQWLL[Aib]T-OH; N-terminus assumed)
2.75 nM	0.0686 nM	79.2	CC(C)C[C@H](NC(=O)[C@H](Cc1c[nH]c2ccccc12)NC(=O)[C@H](CCC(N)=O)NC(=O)[C@@H](NC(=O)[C@H](Cc1ccccc1)NC(=O)[C@H](CC(=O)O)NC(=O)[C@H](CCC(=O)O)NC(=O)[C@H](C)NC(=O)[C@H](CCCNC(=N)N)NC(=O)[C@H](CCCCNC(=O)COCCOCCNC(=O)COCCOCCNC(=O)CC[C@H](NC(=O)CCCCCCCCCCCCCCCCC(=O)O)C(=O)O)NC(=O)[C@H](CO)NC(=O)[C@H](CC(=O)O)NC(=O)[C@H](CC(C)C)NC(=O)[C@](C)(Cc1ccccc1)NC(=O)[C@H](CCCCN)NC(=O)[C@H](CO)NC(=O)[C@@H](NC(=O)[C@H](CC(=O)O)NC(=O)[C@H](CO)NC(=O)[C@@H](NC(=O)[C@H](Cc1ccccc1)NC(=O)[C@@H](NC(=O)CNC(=O)[C@H](CCC(N)=O)NC(=O)C(C)(C)NC(=O)[C@@H](N)Cc1c[nH]cn1)[C@@H](C)O)[C@@H](C)O)C(C)C)C(C)C)C(=O)N[C@@H](CC(C)C)C(=O)NC(C)(C)C(=O)N[C@H](C(=O)O)[C@@H](C)O [Peptide 37] (H-H[Aib]QGTFTSDVSK[αMeF]LDSK([AEEA-AEEA-γGlu-C18 diacid])RAEDFVQWLL[Aib]T-OH)
0.441 nM	0.0756 nM	11.6	CC(C)C[C@H](NC(=O)[C@H](Cc1c[nH]c2ccccc12)NC(=O)[C@H](CCC(=O)O)NC(=O)[C@@H](NC(=O)[C@H](Cc1ccccc1)NC(=O)[C@H](CC(=O)O)NC(=O)[C@H](CCC(N)=O)NC(=O)[C@H](C)NC(=O)[C@H](CCCNC(=N)N)NC(=O)[C@H](CCCCNC(=O)COCCOCCNC(=O)COCCOCCNC(=O)CC[C@H](NC(=O)CCCCCCCCCCCCCCCCC(=O)O)C(=O)O)NC(=O)[C@H](CO)NC(=O)[C@H](CC(=O)O)NC(=O)[C@H](CC(C)C)NC(=O)[C@](C)(Cc1ccccc1)NC(=O)[C@H](CCCCN)NC(=O)[C@H](CO)NC(=O)[C@@H](NC(=O)[C@H](CC(=O)O)NC(=O)[C@H](CO)NC(=O)[C@@H](NC(=O)[C@H](Cc1ccccc1)NC(=O)[C@@H](NC(=O)CNC(=O)[C@H](CCC(N)=O)NC(=O)C(C)(C)NC(=O)[C@@H](N)Cc1c[nH]cn1)[C@@H](C)O)[C@@H](C)O)C(C)C)C(C)C)C(=O)N[C@@H](CC(C)C)C(=O)NC(C)(C)C(=O)N[C@H](C(=O)O)[C@@H](C)O [Peptide 38] (H-H[Aib]QGTFTSDVSK[αMeF]LDSK([AEEA-AEEA-γGlu-C18 diacid])RAQDFVEWLL[Aib]T-OH; N-terminus assumed)
0.194 nM	0.0761 nM	5.0	CC(C)C[C@H](NC(=O)[C@H](Cc1c[nH]c2ccccc12)NC(=O)[C@H](CCCNC(=N)N)NC(=O)[C@@H](NC(=O)[C@H](Cc1ccccc1)NC(=O)[C@H](CC(=O)O)NC(=O)[C@H](CCC(N)=O)NC(=O)[C@H](C)NC(=O)[C@H](CCCNC(=N)N)NC(=O)[C@H](CCCCNC(=O)COCCOCCNC(=O)COCCOCCNC(=O)CC[C@H](NC(=O)CCCCCCCCCCCCCCCCC(=O)O)C(=O)O)NC(=O)[C@H](CO)NC(=O)[C@H](CC(=O)O)NC(=O)[C@H](CC(C)C)NC(=O)[C@](C)(Cc1ccccc1)NC(=O)[C@H](CCCCN)NC(=O)[C@H](CO)NC(=O)[C@@H](NC(=O)[C@H](CC(=O)O)NC(=O)[C@H](CO)NC(=O)[C@@H](NC(=O)[C@H](Cc1ccccc1)NC(=O)[C@@H](NC(=O)CNC(=O)[C@H](CCC(N)=O)NC(=O)C(C)(C)NC(=O)[C@@H](N)Cc1c[nH]cn1)[C@@H](C)O)[C@@H](C)O)C(C)C)C(C)C)C(=O)N[C@@H](CC(C)C)C(=O)NC(C)(C)C(=O)N[C@H](C(=O)N[C@@H](CCC(=O)O)C(=O)O)[C@@H](C)O [Peptide 39] (H-H[Aib]QGTFTSDVSK[αMeF]LDSK([AEEA-AEEA-γGlu-C18 diacid])RAQDFVRWLL[Aib]TE-OH; N-terminus assumed)
0.123 nM	0.0299 nM	8.2	CC(C)C[C@H](NC(=O)[C@H](Cc1c[nH]c2ccccc12)NC(=O)[C@H](CCC(N)=O)NC(=O)[C@@H](NC(=O)[C@H](Cc1ccccc1)NC(=O)[C@H](CC(=O)O)NC(=O)[C@H](CCC(N)=O)NC(=O)[C@H](C)NC(=O)[C@H](CCCNC(=N)N)NC(=O)[C@H](CCCCNC(=O)COCCOCCNC(=O)COCCOCCNC(=O)CC[C@H](NC(=O)CCCCCCCCCCCCCCCCC(=O)O)C(=O)O)NC(=O)[C@H](CO)NC(=O)[C@H](CC(=O)O)NC(=O)[C@H](CC(C)C)NC(=O)[C@](C)(Cc1ccccc1)NC(=O)[C@H](CCCCN)NC(=O)[C@H](CO)NC(=O)[C@@H](NC(=O)[C@H](CC(=O)O)NC(=O)[C@H](CO)NC(=O)[C@@H](NC(=O)[C@H](Cc1ccccc1)NC(=O)[C@@H](NC(=O)CNC(=O)[C@H](CCC(N)=O)NC(=O)C(C)(C)NC(=O)[C@@H](N)Cc1c[nH]cn1)[C@@H](C)O)[C@@H](C)O)C(C)C)C(C)C)C(=O)N[C@@H](CC(C)C)C(=O)NC(C)(C)C(=O)N[C@H](C(=O)O)[C@@H](C)O [Peptide 40] (H-H[Aib]QGTFTSDVSK[αMeF]LDSK([AEEA-AEEA-γGlu-C18 diacid])RAQDFVQWLL[Aib]T-OH; N-terminus assumed)
5.74 nM	0.663 nM	17.1	CC(C)C[C@H](NC(=O)[C@H](Cc1c[nH]c2ccccc12)NC(=O)[C@H](CCC(N)=O)NC(=O)[C@@H](NC(=O)[C@H](Cc1ccccc1)NC(=O)[C@H](CC(=O)O)NC(=O)[C@H](CCC(N)=O)NC(=O)[C@H](C)NC(=O)[C@H](CCCNC(=N)N)NC(=O)[C@H](CCCCNC(=O)COCCOCCNC(=O)COCCOCCNC(=O)CC[C@H](NC(=O)CCCCCCCCCCCCCCCCC(=O)O)C(=O)O)NC(=O)[C@H](CO)NC(=O)[C@H](CC(=O)O)NC(=O)[C@H](CC(C)C)NC(=O)[C@](C)(Cc1ccccc1)NC(=O)[C@H](CCCCN)NC(=O)[C@H](CO)NC(=O)[C@H](Cc1ccc(O)cc1)NC(=O)[C@H](CC(=O)O)NC(=O)[C@H](CO)NC(=O)[C@@H](NC(=O)[C@H](Cc1ccccc1)NC(=O)[C@@H](NC(=O)CNC(=O)[C@H](CCC(N)=O)NC(=O)C(C)(C)NC(=O)[C@@H](N)Cc1c[nH]cn1)[C@@H](C)O)[C@@H](C)O)C(C)C)C(=O)N[C@H](C(=O)NCCOCCOCCOCCOCCC(N)=O)C(C)C [Peptide 41] (H-H[Aib]QGTFTSDYSK[αMeF]LDSK([AEEA-AEEA-γGlu-C18 diacid])RAQDFVQWLV[PEG4]-NH2; N-terminus assumed)
